Results from patent US9328326B2, “Method for isolating cells” (MERCK PATENT GMBH, priority 2006, dated 2016).

Legend:
L. monocytogenes [1] = test: growth of L. monocytogenes after treatment with compounds of the matrix lysis protocol (Example 1); type: cell-based; settings: incubated 2 h at 45 °C in the compound, then plated
Protocol: L. monocytogenes EGDe was used as a DNA quantification standard for real-time PCR and for artificial contamination of food samples. The bacteria were maintained at -80° C. using the MicroBank technology (Pro-Lab Diagnostics, Canada). Listeria were grown in tryptone soy broth with 0.6% ([…]; Oxoid, UK) at 37° C. over night. For artificial contamination of food and viability staining, one milliliter of the over night culture was transferred to one milliliter of fresh medium and incubated at 37° C. for three hours. Plate count method and tryptone soy agar plates supplemented with 0.6% (w/v) yeast extract (TSA-Y; Oxoid, UK) were used for quantification of the pure cultures of L. monocytogenes. The agar plates were incubated at 37° C. for 24 hours. For determination of the survival rate of L. monocytogenes treated with different chemical compounds of the matrix lysis buffer system, 100 μl of an overnight culture of L. monocytogenes was pelleted at 8,000×g for 5 min, resuspended in the chemical compound of choice, and incubated for 2 h at 45° C. and 300 rpm on an Eppendorf shaker (Eppendorf, Germany). Afterwards the bacterial cells were washed twice in 1×PBS at 5,000×g and resuspended in 120 μl 1×PBS. One-hundred μl of the suspension was plated on […] agar plates (Biokar, Beauvais, France). Incubation was performed 48 h at 37° C.

[2] = tested on: prfA gene of L. monocytogenes (real-time PCR); test: inhibitory effects of detergents on real-time PCR; type: biochemical
Protocol: For experiments analysing the effects of food matrices and detergents contained in the matrix lysis buffer on real-time PCR, food matrices were mixed with equal amounts of ddH2O, stomachered for 3 minutes, diluted in a 10-fold dilution series (10^−1, 10^−2 and 10^−3) and 5 μl directly subjected to the real time PCR samples. An aliquot was cooked 15 min at 100° C. for comparison prior to subjection of 5 μl to real-time PCR. Detergents were diluted in 2-fold dilution series (0.4 M-0.05 M Urea and 0.8%-0.005% SDS) and 5 μl were subjected to the real-time PCR samples.
Real-time PCR was performed in an Mx3000p real-time PCR thermocycler (Stratagene, USA). The 25 μl volume contained 20 mM Tris-HCl, 50 mM KCl, 3.5 mM MgCl2. 500 nM of each primer, 250 nM of each probe, 200 μM (each) of dATP, dTTP, dGTP and dCTP, 1.5 U of Platinum Taq DNA polymerase (Invitrogen, Austria), 25 copies of the IAC and […]. Amplification following initial denaturation at 94° C. for 2 min was performed in 45 cycles, at each 94° C. for 15 s and 64° C. for 1 minute.

Gram negative bacteria = test: recovery of Gram negative bacteria in matrix lysis; type: cell-based; settings: as detergent of the lysis buffer
Protocol: Combinations of five different detergents (Tween 20®, Tween 80®, Triton X-100®; SDS, and Lutensol AO-7), three enzymes (Protease, alpha-amylase and cellulase) and a sucrose buffer (0.25 M sucrose, 1 mM EDTA and 0.05 M Tris, pH 7.6) were compared with respect of their ability to dissolve food matrices (salmon, chicken meat, diary products, ice cream, blood, starch rich foodstuffs, egg and milk) and their effect on the cellular appearance of the bacterial cells. All chemicals used (with the exception of SDS, Sigma-Aldrich, Germany; Lutensol AO-7, BASF, Netherland and Savinase, Novozymes, Denmark) were purchased at Merck (Germany). The matrix lysis protocol is described below.
Matrix lysis was generally performed as described in example 1. Processing meat, fish, chicken and blood or when Gram positive bacteria were targeted, buffer system I (8 M urea, 1% SDS, and 1×PBS) was used. Buffer system II (8 M urea, 1% Lutensol AO-7 and 1×PBS) was used if Gram negative bacteria were targeted and for all other foodstuffs used (Milk, diary products, ice cream, and egg).

S. thyphimurium [3] = test: BacLight viability staining after exposure to chemical compounds; type: cell-based
Protocol: (§1) For assessment of the survival rate of the bacteria treated with different chemical compounds of the matrix lysis buffer system, 100 μl of an overnight culture was pelleted at 8,000×g for 5 min, re-suspended in 1 ml of the chemical compound of choice, […] shaker (Eppendorf, Germany). The bacterial cells were then washed twice in 1×PBS at 5,000×g and re-suspended in 120 μl 1×PBS. One-hundred it of the suspension was plated onto TSB-Y agar plates (Oxoid). Incubation was performed for 48 h at 37° C. Additionally the Live/Dead® BacLight™ Bacterial Viability Kit (Molecular Probes, USA) was used to examine the condition of the bacteria after the chemical treatments.
(§2) Viability staining was performed using the Live/Dead® BacLight™ Bacterial Viability Kit (Molecular Probes) as prescribed by the manufacturer. Ten fields per filter were analysed, and two filters were prepared for each sample.

B. cereus [4] = test: as above; type: cell-based; design: key: red: Red colour indicates dead cells; c.r.: Reduced cell count; green: Green colour indicates living cells
Protocol: as §1, §2

E. coli [5] = test: as above; type: cell-based; design: key: red: Red colour indicates dead cells; c.r.: Reduced cell count; green: Green colour indicates living cells
Protocol: as §1, §2

L. monocytogenes [6] = test: as above; type: cell-based; design: key: red: Red colour indicates dead cells; c.r.: Reduced cell count; green: Green colour indicates living cells
Protocol: as §1, §2

S. aureus [7] = test: as above; type: cell-based; design: key: red: Red colour indicates dead cells; c.r.: Reduced cell count; green: Green colour indicates living cells
Protocol: as §1, §2

B. cereus [8] = test: plate growth after exposure to chemical compounds; type: cell-based
Protocol: as §1

E. coli [9] = test: plate growth after exposure to chemical compounds; type: cell-based
Protocol: as §1

L. monocytogenes [10] = test: plate growth after exposure to chemical compounds; type: cell-based
Protocol: as §1

S. aureus [11] = test: plate growth after exposure to chemical compounds; type: cell-based
Protocol: as §1

S. thyphimurium [12] = test: plate growth after exposure to chemical compounds; type: cell-based
Protocol: as §1

## CCCCCCCCCCCCOS(=O)(=O)[O-].[Na+] [1% SDS, sodium dodecyl sulfate]
L. monocytogenes [1]
  growth of L. monocytogenes on TSY agar after treatment: Complete inhibition of growth
[2]; SDS 0.8% to 0.005%, 15.5 and 1,550 copies/PCR
  inhibitory effect on real-time PCR: no amplification
Gram negative bacteria
  recovery of Gram negative bacteria: decreasing the recovery

## NC(N)=O [8 M Urea, urea]
S. thyphimurium [3]; 37 °C
  S. thyphimurium BacLight: c.r.^b/red
S. thyphimurium [3]; 42 °C
  S. thyphimurium BacLight: c.r./red
S. thyphimurium [3]; 45 °C
  S. thyphimurium BacLight: c.r./red
B. cereus [4]; 37 °C
  B. cereus BacLight: green
B. cereus [4]; 42 °C
  B. cereus BacLight: green
B. cereus [4]; 45 °C
  B. cereus BacLight: green
E. coli [5]; 37 °C
  E. coli BacLight: red^a
E. coli [5]; 42 °C
  E. coli BacLight: c.r./red
E. coli [5]; 45 °C
  E. coli BacLight: c.r./red
L. monocytogenes [6]; 37 °C
  L. monocytogenes BacLight: green^c
L. monocytogenes [6]; 42 °C
  L. monocytogenes BacLight: green
L. monocytogenes [6]; 45 °C
  L. monocytogenes BacLight: green
S. aureus [7]; 37 °C
  S. aureus BacLight: green
S. aureus [7]; 42 °C
  S. aureus BacLight: green
S. aureus [7]; 45 °C
  S. aureus BacLight: green
B. cereus [8]; 37 °C
  B. cereus Plate growth: pos..
B. cereus [8]; 42 °C
  B. cereus Plate growth: pos..
B. cereus [8]; 45 °C
  B. cereus Plate growth: pos..
E. coli [9]; 37 °C
  E. coli Plate growth: neg.
E. coli [9]; 42 °C
  E. coli Plate growth: neg.
L. monocytogenes [10]; 37 °C
  L. monocytogenes Plate growth: pos..
L. monocytogenes [10]; 42 °C
  L. monocytogenes Plate growth: pos..
L. monocytogenes [10]; 45 °C
  L. monocytogenes Plate growth: pos..
S. aureus [11]; 37 °C
  S. aureus Plate growth: pos..
S. aureus [11]; 42 °C
  S. aureus Plate growth: pos..
S. aureus [11]; 45 °C
  S. aureus Plate growth: pos..
S. thyphimurium [12]; 37 °C
  S. thyphimurium Plate growth: neg.
S. thyphimurium [12]; 42 °C
  S. thyphimurium Plate growth: neg.
S. thyphimurium [12]; 45 °C
  S. thyphimurium Plate growth: neg.
L. monocytogenes [1]
  growth of L. monocytogenes on TSY agar after treatment: able to grow
[2]; urea 0.4 M and 0.2 M, 15.5 copies of the target
  inhibitory effect on real-time PCR: total inhibition
[2]; urea 0.4 M, 1,550 copies of the target
  inhibitory effect on real-time PCR: total inhibition
